The subject of the assay is L1210 leukemia ip in BDF1 mice, survival T/C. Kind of assay: NCI In Vivo Anticancer Drug Screen. Data for tumor model L1210 Leukemia (intraperitoneal) in B6D2F1 (BDF1) mice. The note with it: endpoint: mean survival time, higher = longer survival. Summed up:
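Tumor cells were implanted, animals were treated, and survival was followed. The result divides the treated measurement by the vehicle-control measurement.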

[1] abbreviates: dose: 100.0 mg/kg/injection, schedule: Q04DX003 (ip), vehicle: saline.
Setting [2] is: dose: 200.0 mg/kg/injection, schedule: Q04DX003 (ip), vehicle: saline.
Where [3] appears, read: dose: 400.0 mg/kg/injection, schedule: Q04DX003 (ip), vehicle: saline.
[4] abbreviates: dose: 100.0 mg/kg/injection, schedule: Q01DX009 (ip), vehicle: Klucel (hydroxypropylcellulose) (HPC).
Where [5] appears, read: dose: 200.0 mg/kg/injection, schedule: Q01DX009 (ip), vehicle: Klucel (hydroxypropylcellulose) (HPC).
Where [6] appears, read: dose: 400.0 mg/kg/injection, schedule: Q01DX009 (ip), vehicle: Klucel (hydroxypropylcellulose) (HPC).

“And” between values parts separate entries of the source, which are not always exact repeats. Equal entries are not always repeated. Inconclusive results and toxic doses are left out.

For `CN(C(N)=O)c1c(O)nc(N)[nH]c1=O`, the T/C runs as follows: (dose: 25.0 mg/kg/injection, schedule: Q01DX009 (ip), vehicle: water) 98 % of control; (dose: 50.0 mg/kg/injection, schedule: Q01DX009 (ip), vehicle: water) 98 % of control; (dose: 50.0 mg/kg/injection, schedule: Q04DX003 (ip), vehicle: water) 108 % of control; (dose: 100.0 mg/kg/injection, schedule: Q01DX009 (ip), vehicle: water) 102 % of control; (dose: 100.0 mg/kg/injection, schedule: Q04DX003 (ip), vehicle: water) 97 % of control; (dose: 150.0 mg/kg/injection, schedule: Q01DX009 (ip), vehicle: water) 105 % of control. In addition, the T/C (dose: 200.0 mg/kg/injection, schedule: Q04DX003 (ip), vehicle: water) was 90 % of control.

Consider `O=C(CCl)NCc1ccc(Cl)cc1`, for which the T/C runs as follows: (dose: 50.0 mg/kg/injection, schedule: Q01DX001 (ip), vehicle: other) 102 % of control; (dose: 100.0 mg/kg/injection, schedule: Q01DX001 (ip), vehicle: other) 93 % of control; (dose: 200.0 mg/kg/injection, schedule: Q01DX001 (ip), vehicle: other) 102 % of control.

As for `O=C(O)Cc1ccc(I)cc1`, the T/C is, setting by setting: (dose: 100.0 mg/kg/injection, schedule: Q04DX003 (ip), vehicle: gum acacia) 98 % of control; (dose: 200.0 mg/kg/injection, schedule: Q04DX003 (ip), vehicle: gum acacia) 96 % of control; (dose: 400.0 mg/kg/injection, schedule: Q04DX003 (ip), vehicle: gum acacia) 94 % of control.

As for `Cc1cccc(CSc2nc(N)nc3ncn(C4CC(O)C(CO)O4)c23)n1` (configuration not stated), the T/C (dose: 100.0 mg/kg/injection, schedule: Q01DX005 (ip), vehicle: saline) was 101 % of control and the T/C (dose: 200.0 mg/kg/injection, schedule: Q01DX005 (ip), vehicle: saline) is 103 % of control.

Consider `O=C(CC(O)(C(F)(F)F)C(F)(F)F)c1ccc(Br)cc1`, for which the T/C is, setting by setting: (dose: 100.0 mg/kg/injection, schedule: Q04DX003 (ip), vehicle: other) 98 % of control; (dose: 200.0 mg/kg/injection, schedule: Q04DX003 (ip), vehicle: other) 106 % of control; (dose: 400.0 mg/kg/injection, schedule: Q04DX003 (ip), vehicle: other) 93 % of control.

As for `CC12CC3(C)CC(C)(C1)CC(NC(=O)N(CCCl)N=O)(C2)C3`, the T/C is 155 % of control (dose: 20.0 mg/kg/injection, schedule: Q01DX001 (ip), vehicle: other); 162 % of control (dose: 187.0 mg/kg/injection, schedule: Q01DX001 (ip), vehicle: other); 187 % of control (dose: 250.0 mg/kg/injection, schedule: Q01DX001 (ip), vehicle: other); 211 % of control (dose: 375.0 mg/kg/injection, schedule: Q01DX001 (ip), vehicle: other); 258 % of control (dose: 500.0 mg/kg/injection, schedule: Q01DX001 (ip), vehicle: other); 274 % of control (dose: 750.0 mg/kg/injection, schedule: Q01DX001 (ip), vehicle: other).

As for `CCCCCC[As](=O)(O)O`, the T/C by setting is: (dose: 1.5 mg/kg/injection, schedule: Q01DX001 (ip), vehicle: carboxymethylcellulose (CMC)) 98 % of control; (dose: 3.0 mg/kg/injection, schedule: Q01DX001 (ip), vehicle: carboxymethylcellulose (CMC)) 93 % of control; (dose: 6.0 mg/kg/injection, schedule: Q01DX001 (ip), vehicle: carboxymethylcellulose (CMC)) 102 % of control.

In the case of `CCC(Cl)(c1ccccc1)C(O)C(=O)OC(C)C` (configuration not stated), the T/C reads like this: (dose: 100.0 mg/kg/injection, schedule: Q04DX002 (ip), vehicle: Klucel (hydroxypropylcellulose) (HPC)) 106 % of control; (dose: 200.0 mg/kg/injection, schedule: Q04DX002 (ip), vehicle: Klucel (hydroxypropylcellulose) (HPC)) 103 % of control; (dose: 400.0 mg/kg/injection, schedule: Q04DX002 (ip), vehicle: Klucel (hydroxypropylcellulose) (HPC)) 106 % of control.

For `O=C1C(=O)C2CCC1C2`, the T/C (dose: 25.0 mg/kg/injection, schedule: Q04DX002 (ip), vehicle: other) is 100 % of control; the T/C (dose: 50.0 mg/kg/injection, schedule: Q04DX002 (ip), vehicle: other) was 98 % of control; the T/C (dose: 100.0 mg/kg/injection, schedule: Q04DX002 (ip), vehicle: other) is 98 % of control.

For `CCOC(=O)c1c[nH]c(=O)c([N+](=O)[O-])c1O`, the T/C by setting is: (dose: 100.0 mg/kg/injection, schedule: Q01DX009 (ip), vehicle: saline with Tween-80) 98 % of control; (dose: 100.0 mg/kg/injection, schedule: Q04DX003 (ip), vehicle: saline with Tween-80) 96 % of control; (dose: 200.0 mg/kg/injection, schedule: Q01DX009 (ip), vehicle: saline with Tween-80) 109 % of control; (dose: 200.0 mg/kg/injection, schedule: Q04DX003 (ip), vehicle: saline with Tween-80) 98 % of control; (dose: 400.0 mg/kg/injection, schedule: Q01DX009 (ip), vehicle: saline with Tween-80) 92 % of control; (dose: 400.0 mg/kg/injection, schedule: Q04DX003 (ip), vehicle: saline with Tween-80) 90 % of control.

In the case of `Fc1ccc(C(Cl)Cl)cc1`, the T/C (dose: 100.0 mg/kg/injection, schedule: Q01DX009 (ip), vehicle: saline) was 102 % of control; the T/C under setting [1] was 97 % of control and 86 % of control; the T/C (dose: 200.0 mg/kg/injection, schedule: Q01DX009 (ip), vehicle: saline) is 99 % of control; the T/C under setting [2] was 101 % of control; the T/C under setting [3] was 101 % of control and 89 % of control.

As to `O=C(CCCCCCCCC(=O)Nc1ccccc1F)Nc1ccccc1F`, the T/C by setting is: under setting [4], 101 % of control; under setting [5], 102 % of control; under setting [6], 101 % of control.

For the molecule `O=S(=O)([O-])CC[n+]1ccc(-c2ccccc2)o1`, the T/C is, setting by setting: (dose: 100.0 mg/kg/injection, schedule: Q01DX001 (ip), vehicle: carboxymethylcellulose (CMC)) 94 % of control; under setting [1], 110 % of control; (dose: 200.0 mg/kg/injection, schedule: Q01DX001 (ip), vehicle: carboxymethylcellulose (CMC)) 97 % of control; under setting [2], 103 % of control; (dose: 400.0 mg/kg/injection, schedule: Q01DX001 (ip), vehicle: carboxymethylcellulose (CMC)) 97 % of control; under setting [3], 118 % of control.

Turning to `CCOC1CCC2C(CCC(/C=C/c3ccc(O)c4ncccc34)N2C)C1` (configuration not stated), the T/C runs as follows: (dose: 21.0 mg/kg/injection, schedule: Q01DX015 (ip), vehicle: saline) 113 % of control; (dose: 36.0 mg/kg/injection, schedule: Q01DX015 (ip), vehicle: saline) 111 % of control; (dose: 88.8 mg/kg/injection, schedule: Q01DX001 (ip), vehicle: saline) 103 % of control and 116 % of control; (dose: 100.0 mg/kg/injection, schedule: Q01DX001 (ip), vehicle: saline) 115 % of control; (dose: 100.0 mg/kg/injection, schedule: Q01DX015 (ip), vehicle: saline) 93 % of control; (dose: 133.4 mg/kg/injection, schedule: Q01DX001 (ip), vehicle: saline) 108 % of control and 116 % of control and 121 % of control. The T/C (dose: 300.0 mg/kg/injection, schedule: Q01DX001 (ip), vehicle: saline) is 116 % of control and 121 % of control.

`c1ccc(C2=C(c3ccccc3)CC2)cc1`: the T/C (dose: 50.0 mg/kg/injection, schedule: Q01DX001 (ip), vehicle: Klucel (hydroxypropylcellulose) (HPC)) was 104 % of control; the T/C (dose: 100.0 mg/kg/injection, schedule: Q01DX001 (ip), vehicle: Klucel (hydroxypropylcellulose) (HPC)) was 98 % of control; the T/C (dose: 200.0 mg/kg/injection, schedule: Q01DX001 (ip), vehicle: Klucel (hydroxypropylcellulose) (HPC)) was 108 % of control.

Regarding `O=C(NCc1ccc(Cl)cc1)Nc1cccc(F)c1`, the T/C was 105 % of control (dose: 100.0 mg/kg/injection, schedule: Q01DX009 (ip), vehicle: gum acacia); 86 % of control (dose: 200.0 mg/kg/injection, schedule: Q01DX009 (ip), vehicle: gum acacia); 98 % of control (dose: 400.0 mg/kg/injection, schedule: Q01DX009 (ip), vehicle: gum acacia).

With `O=C(Cl)C1(Br)CC2c3ccccc3C1([N+](=O)[O-])c1ccccc12` (configuration not stated), the T/C under setting [4] was 88 % of control; the T/C (dose: 100.0 mg/kg/injection, schedule: Q04DX003 (ip), vehicle: Klucel (hydroxypropylcellulose) (HPC)) was 108 % of control; the T/C under setting [5] is 91 % of control; the T/C (dose: 200.0 mg/kg/injection, schedule: Q04DX003 (ip), vehicle: Klucel (hydroxypropylcellulose) (HPC)) was 95 % of control; the T/C under setting [6] was 96 % of control; the T/C (dose: 400.0 mg/kg/injection, schedule: Q04DX003 (ip), vehicle: Klucel (hydroxypropylcellulose) (HPC)) was 104 % of control.

These data come from PubChem BioAssay AID248 (DTP/NCI, 2004).
